Laboratory results taken from PMC12332667, “Role of Structural Modifications in Peptidomimetic Compounds as Potential Antimicrobial Agents against Staphylococcus aureus and Streptococcus pyogenes: Balancing Bioavailability, Safety, and Antimicrobial Activity” (ACS Omega, 2025).
In brackets after ≈: the same amount, converted by molar mass.

Assays:
S. pyogenes ATCC 19615 = test: MIC/MBC broth microdilution, S. pyogenes; assay type: cell-based, Streptococcus pyogenes; settings: S. pyogenes
Experimental: (§1) S. aureus (ATCC 29213),S. pyogenes (ATCC 19615),Streptococcus agalactiae (ATCC 27956),Escherichia coli (ATCC 25922),Proteus vulgaris (ATCC 6896),K. pneumoniae (ATCC 700603) andP. aeruginosa (ATCC 10145) reference strains, as well asStaphylococcus cohnii, Enterococcus faecalis, Staphylococcus schleiferi, Staphylococcus intermedius and Streptococcus mutans clinical isolates, were used to test the antibacterial activity of the peptidomimetics. Bacteria were aerobically cultured for 18 h at 37 °C in plates with sterilized brain heart infusion (BHI) broth (Sigma-Aldrich, USA) media mixed with bacteriological agar (Sigma-Aldrich, USA) using the streak plate method. After 18 h, BHI broth was inoculated to 0.5 on the McFarland scale and diluted to approximately 10^5 CFU/mL. To achieve a final stock concentration of 1024 μg/mL, the peptidomimetics were dissolved in sterile water, and 5–10% of absolute ethanol or dimethyl sulfoxide (DMSO) was added. The antibacterial activities were determined by using the standard broth microdilution method of the National Committee for Clinical Laboratory Standards. The process involved adding serially diluted peptidomimetics to consecutive wells of a 96-well microtiter plate (Brand, Germany) holding media with microorganisms. The inoculated plates treated with peptides were then placed in an incubator at 37 °C for 18 h. The MIC value was determined as the lowest concentration of peptidomimetic at which there was no obvious growth (equal or more than 90% of the untreated sample). […] The lowest concentration yielding growth in no more than 3 colonies, corresponding to at least a 99.9% kill rate, was taken as MBC. Each biological replicate included control wells with the addition of water, DMSO, and ethanol as respective solvent controls. All experiments were conducted with consistent adherence to growth and sterility controls and were performed at least in technical triplicate with three biological repeats.

S. cohnii c.i. = test: MIC/MBC broth microdilution, S. cohnii; assay type: cell-based, Staphylococcus cohnii
Experimental: as §1

S. schleiferi c.i. = test: MIC/MBC broth microdilution, S. schleiferi; assay type: cell-based, Staphylococcus schleiferi
Experimental: as §1

E. coli ATCC 25922 = test: MIC/MBC broth microdilution, E. coli; assay type: cell-based, Escherichia coli
Experimental: as §1

[1] = test system: K. pneumoniae ATCC 700603; test: MIC/MBC broth microdilution, K. pneumoniae; assay type: cell-based
Experimental: as §1

fibroblasts (46BR.1N) = test: LDH cytotoxicity test, fibroblasts; assay type: cell-based; settings: 48 h
Experimental: (§2) In our study, we used two distinct cell types: immortalized human HaCaT keratinocytes (DKFZ, Heidelberg, Germany) and a human dermal fibroblast cell line (46BR.1N). […] Cultures were maintained in a humidified atmosphere with 5% CO2 at 37 °C in 25 cm^2 culture flasks with the medium replenished every 2 days. The condition of the cells was monitored using optical microscopy.
(§3) Cell death in immortalized human keratinocytes (HaCaT) and fibroblasts (46BR.1N) was measured by quantifying the lactate dehydrogenase (LDH) activity using a commercial kit (Roche, Switzerland). Cells were seeded in 96-well plates at a density of 5000 cells per well in DMEM high glucose medium supplemented with 10% FBS. After 24 h of incubation, the medium was replaced with serum-free medium containing various concentrations of peptidomimetics (50, 100, and 150 μg/mL). After 48 h, supernatants were collected for LDH analysis. Plate readings were taken spectrophotometrically using a 450 nm wavelength. Cell death measurements were normalized to an untreated control (0%), with 1% Triton X-100 detergent used as a positive control to induce maximum LDH release, indicating maximal cytotoxicity. Statistical significance was determined with a Mann–Whitney U test with a statistical significance p ≤ 0.05. Analysis was performed with Statistica software (Krakow, Poland) and graphs were prepared in GraphPad Prism (Boston, USA).

E. faecalis c.i. = test: MIC/MBC broth microdilution, E. faecalis; assay type: cell-based, Enterococcus faecalis
Experimental: as §1

S. intemrdius c.i. = test: MIC/MBC broth microdilution, S. intermedius; assay type: cell-based, Staphylococcus intermedius
Experimental: as §1

S. aureus ATCC 43300 = test: MIC/MBC broth microdilution, S. aureus; assay type: cell-based, Staphylococcus aureus; settings: for MBC / MIC: S. aureus
[2] = test system: human dermal fibroblast cell line (46BR.1N); test: XTT cell proliferation assay, fibroblasts; assay type: cell-based
Experimental: (§4) In our study, we used two distinct cell types: immortalized human HaCaT keratinocytes (DKFZ, Heidelberg, Germany) and a human dermal fibroblast cell line (46BR.1N). […] Cultures were maintained in a humidified atmosphere with 5% CO2 at 37 °C in 25 cm^2 culture flasks with the medium replenished every 2 days. The condition of the cells was monitored using optical microscopy. […] After 24 h of incubation, the medium was replaced with serum-free HG-DMEM containing appropriate concentrations of peptidomimetics. All solutions used in the experiments were prepared with double-distilled water or with the addition of ethanol under sterile conditions to ensure compatibility with the conditions of the bacteriological assay. For 72 h of incubation, half of the medium was replaced with fresh medium after 48 h, and cells were stimulated with peptides for a second time. The XTT cell proliferation assay was then performed according to the manufacturer’s instructions (Roche, Switzerland). Cells were treated with the peptides for either 48 or 72 h, followed by the addition of XTT reagent, and the plates were then incubated at 37 °C in a 5% CO2 environment for 4 h. Plate readings were taken using a standard plate reader at a wavelength of 490 nm (OD = 490 nm). […] Statistical significance was determined with a Mann–Whitney U test with statistical significance p ≤ 0.05. Analysis was performed with Statistica software, and graphs were prepared in GraphPad Prism.

S. agalactiae ATCC 27956 = test: MIC/MBC broth microdilution, S. agalactiae; assay type: cell-based, Streptococcus agalactiae; settings: S. agalactiae
Experimental: as §1

S. mutans c.i. = test: MIC/MBC broth microdilution, S. mutans; assay type: cell-based, Streptococcus mutans
Experimental: as §1

[3] = test system: immortalized human HaCaT keratinocytes; test: XTT cell proliferation assay, keratinocytes; assay type: cell-based
Experimental: as §4

P. aeruginosa ATCC 10145 = test: MIC/MBC broth microdilution, P. aeruginosa; assay type: cell-based
Experimental: as §1

[4] = test system: immortalized human keratinocytes (HaCaT); test: LDH cytotoxicity test, keratinocytes; assay type: cell-based; settings: 48 h
Experimental: as §2, §3

P. vulgaris ATCC 6896 = test: MIC/MBC broth microdilution, P. vulgaris; assay type: cell-based, Proteus vulgaris
Experimental: as §1

[5] = XTT, 48 and 72 h, 0.01–150 μg/mL
[6] = up to 150 μg/mL, A-193 and A-179 after 48 h

`CC(C)C[C@H](NC(=O)[C@H](CCCNC(=N)N)NC(=O)OCc1ccccc1)C(=O)N[C@H](CNC(=O)C(=Cc1ccccc1)c1ccccc1)C(C)C` [Compound A-164] showed an MBC (S. pyogenes ATCC 19615; H2O) of 16 µg/mL (≈ 22.5 µM), an MIC (S. pyogenes ATCC 19615; H2O) of 8 µg/mL (≈ 11.2 µM) and an MBC (S. pyogenes ATCC 19615; water additive DMSO) of 16 µg/mL (≈ 22.5 µM). The MIC (S. pyogenes ATCC 19615; water additive DMSO) was 8 µg/mL (≈ 11.2 µM), the MBC (S. pyogenes ATCC 19615; water additive EtOH) was 8 µg/mL (≈ 11.2 µM) and the MIC (S. pyogenes ATCC 19615; water additive EtOH) was 4 µg/mL (≈ 5.62 µM). The MBC (S. cohnii c.i.; water additive DMSO) was 32 µg/mL (≈ 44.9 µM), the MIC (S. cohnii c.i.; water additive DMSO) was 16 µg/mL (≈ 22.5 µM) and the MIC (S. cohnii c.i.; water additive EtOH) was 32 µg/mL (≈ 44.9 µM). The MBC (S. schleiferi c.i.; H2O) was 16 µg/mL (≈ 22.5 µM), the MIC (S. schleiferi c.i.; H2O) was 8 µg/mL (≈ 11.2 µM) and the MBC (S. schleiferi c.i.; water additive DMSO) was 32 µg/mL (≈ 44.9 µM). For the same molecule, the MIC (S. schleiferi c.i.; water additive DMSO) was 16 µg/mL (≈ 22.5 µM), the MBC (S. schleiferi c.i.; water additive EtOH) was 8 µg/mL (≈ 11.2 µM) and the MIC (S. schleiferi c.i.; water additive EtOH) was 4 µg/mL (≈ 5.62 µM). For the same molecule, the MIC (E. coli ATCC 25922; H2O) was > 512 µg/mL, the MIC (E. coli ATCC 25922; water additive DMSO) was > 512 µg/mL and the MIC (E. coli ATCC 25922; water additive EtOH) was > 512 µg/mL. The MIC ([1]; H2O) was > 512 µg/mL, the MIC ([1]; water additive DMSO) was > 512 µg/mL and the MIC ([1]; water additive EtOH) was > 512 µg/mL. The “cytotoxicity (LDH), in words” value (fibroblasts (46BR.1N); 50-150 μg/mL) was “cytotoxic effects across all of the tested concentrations”, the “concentration at which cytotoxic effect starts” value (fibroblasts (46BR.1N); LDH) was 50 µg/mL and the MIC (E. faecalis c.i.; H2O) was 32 µg/mL (≈ 44.9 µM). For the same molecule, the MBC (E. faecalis c.i.; water additive DMSO) was 32 µg/mL (≈ 44.9 µM), the MIC (E. faecalis c.i.; water additive DMSO) was 16 µg/mL (≈ 22.5 µM) and the MIC (E. faecalis c.i.; water additive EtOH) was 32 µg/mL (≈ 44.9 µM). It also gave an MBC (S. intemrdius c.i.; H2O) of 32 µg/mL (≈ 44.9 µM), an MIC (S. intemrdius c.i.; H2O) of 16 µg/mL (≈ 22.5 µM) and an MBC (S. intemrdius c.i.; water additive DMSO) of 8 µg/mL (≈ 11.2 µM). It also gave an MIC (S. intemrdius c.i.; water additive DMSO) of 4 µg/mL (≈ 5.62 µM), an MBC (S. intemrdius c.i.; water additive EtOH) of 16 µg/mL (≈ 22.5 µM) and an MIC (S. intemrdius c.i.; water additive EtOH) of 8 µg/mL (≈ 11.2 µM). It also gave an MBC (S. aureus ATCC 43300; H2O) of 16 µg/mL (≈ 22.5 µM), an MIC (S. aureus ATCC 43300; H2O) of 8 µg/mL (≈ 11.2 µM) and an MBC (S. aureus ATCC 43300; water additive DMSO) of 16 µg/mL (≈ 22.5 µM). For the same molecule, the MIC (S. aureus ATCC 43300; water additive DMSO) was 8 µg/mL (≈ 11.2 µM), the MBC (S. aureus ATCC 43300; water additive EtOH) was 16 µg/mL (≈ 22.5 µM) and the MIC (S. aureus ATCC 43300; water additive EtOH) was 8 µg/mL (≈ 11.2 µM). For the same molecule, the “MIC value for S. aureus” value (S. aureus ATCC 43300; additive not stated) was 8 µg/mL, the viability ([2]; 48 h, 50, 100 and 150 μg/mL) was “over 20%” and the “proliferation relative to control at 50 μg/mL” value ([2]; XTT, 50 μg/mL) was 50%. The “effect on proliferation, in words” value [2, 5] was “negative impact”, the “antiproliferative effect (decrease vs control)” value [2, 6] was “up to 50%” and the MBC (S. agalactiae ATCC 27956; H2O) was 16 µg/mL (≈ 22.5 µM). The MIC (S. agalactiae ATCC 27956; H2O) was 8 µg/mL (≈ 11.2 µM), the MBC (S. agalactiae ATCC 27956; water additive DMSO) was 32 µg/mL (≈ 44.9 µM) and the MIC (S. agalactiae ATCC 27956; water additive DMSO) was 16 µg/mL (≈ 22.5 µM). For the same molecule, the MBC (S. agalactiae ATCC 27956; water additive EtOH) was 8 µg/mL (≈ 11.2 µM), the MIC (S. agalactiae ATCC 27956; water additive EtOH) was 4 µg/mL (≈ 5.62 µM) and the MIC (S. mutans c.i.; H2O) was > 512 µg/mL. For the same molecule, the MIC (S. mutans c.i.; water additive DMSO) was > 512 µg/mL, the MIC (S. mutans c.i.; water additive EtOH) was > 512 µg/mL and the “proliferation relative to control at 50 μg/mL” value ([3]; XTT, 50 μg/mL) was 50%. The “effect on proliferation, in words” value [3, 5] was “negative impact”, the “antiproliferative effect (decrease vs control)” value [3, 6] was “up to 50%” and the MIC (P. aeruginosa ATCC 10145; H2O) was > 512 µg/mL. The MIC (P. aeruginosa ATCC 10145; water additive DMSO) was > 512 µg/mL, the MIC (P. aeruginosa ATCC 10145; water additive EtOH) was > 512 µg/mL and the “cytotoxicity (LDH), in words” value ([4]; 50-150 μg/mL) was “cytotoxic effects across all of the tested concentrations”. For the same molecule, the “concentration at which cytotoxic effect starts” value ([4]; LDH) was 50 µg/mL, the MIC (P. vulgaris ATCC 6896; H2O) was > 512 µg/mL and the MIC (P. vulgaris ATCC 6896; water additive DMSO) was > 512 µg/mL. The MIC (P. vulgaris ATCC 6896; water additive EtOH) was > 512 µg/mL.
